Among the test systems are HOP-92; KM12; DLD-1; 786-0; M14; NCI-H460; BT-549; MDA-MB-231; PC-3; OVCAR-4; T47D; NCI-H522; UACC-257; SF-295; OVCAR-8; SNB-75; K562; MDA-MB-435; CAKI-1; RPMI-8226.
What all share (experiment): DTP human tumour cell line panel, 48 h

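Each compound was tested at five concentrations against cells in 96-well plates for 48 hours. Abbreviation: GI50, concentration required for 50% inhibition of growth.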 Active and inactive are the calls of the source. No stated cut-off is given here; in the data, active = GI50 up to about 1.1 µM and inactive = higher.

What is called GI50 is the concentration that inhibits growth by half. Consider `O=C1C(Cl)=C(Cl)C(=O)N1c1ccc(F)cc1` [FLUOROIMIDE], for which the GI50 in the assay on HOP-92 is 17.6 µM (inactive); with KM12, 20.8 µM (inactive); in the assay with DLD-1 it was 18.2 µM (inactive); in the assay on 786-0 it was 16.4 µM (inactive); with M14, 19.5 µM (inactive); with NCI-H460, > 83.6 µM (inactive). For the same molecule, the GI50 in the assay on BT-549 is 16.5 µM (inactive); in the assay on MDA-MB-231, 17.1 µM (inactive); in the assay on PC-3, 16.3 µM (inactive); in the assay on OVCAR-4 it was 16.3 µM (inactive); in the assay on T47D, 17.8 µM (inactive); in the assay with NCI-H522, 3.81 µM (inactive). The GI50 in the assay on UACC-257 was 36.1 µM (inactive); in the assay on SF-295 it was > 53.2 µM (inactive); with OVCAR-8, 21.1 µM (inactive); in the assay on SNB-75, 12.8 µM (inactive); in the assay on K562 it was 5.11 µM (inactive); in the assay on MDA-MB-435, 17.9 µM (inactive). The results for the GI50 in the assay on CAKI-1 and with RPMI-8226 were 13.7 µM (inactive) and 15.1 µM (inactive), respectively.

In the case of `COCN/C(N)=N/C#N`, the GI50 in the assay with HOP-92 is > 100 µM (inactive); in the assay with KM12, > 100 µM (inactive); in the assay on DLD-1, 42 µM (inactive); in the assay on 786-0 it was 80.4 µM (inactive); in the assay on M14, > 100 µM (inactive); in the assay with NCI-H460, > 100 µM (inactive). The GI50 in the assay on OVCAR-4, with NCI-H522, in the assay on UACC-257, in the assay with SF-295, in the assay on OVCAR-8 and with SNB-75 was > 100 µM (inactive) throughout. Also, the GI50 in the assay on K562, with CAKI-1 and with RPMI-8226 was > 100 µM (inactive) in each case.

With `Nc1nc(SCC(=O)c2ccccc2)c2[nH]cnc2n1`, the GI50 in the assay with HOP-92 is 46.5 µM (inactive); with KM12 it was > 100 µM (inactive); with DLD-1 it was > 100 µM (inactive); with 786-0, > 100 µM (inactive); in the assay on M14 it was > 100 µM (inactive); in the assay on NCI-H460, > 100 µM (inactive). Further, the GI50 in the assay with OVCAR-4 was > 100 µM (inactive); with NCI-H522 it was > 100 µM (inactive); with UACC-257, > 100 µM (inactive); in the assay with SF-295 it was > 100 µM (inactive); in the assay on OVCAR-8, > 100 µM (inactive); in the assay on SNB-75, 21.9 µM (inactive). For the same molecule, the GI50 in the assay with K562, in the assay on CAKI-1 and with RPMI-8226 was > 100 µM (inactive) throughout.

As to `NCc1cc(O)c(O)c(O)c1`, the GI50 in the assay with HOP-92, in the assay with KM12, in the assay with DLD-1, in the assay on 786-0, in the assay with M14 and with NCI-H460 was > 100 µM (inactive) each time. For the same molecule, the GI50 with OVCAR-4, in the assay on NCI-H522, in the assay on UACC-257, with SF-295, in the assay with OVCAR-8 and in the assay with SNB-75 was > 100 µM (inactive) in each case. The GI50 was 43.1 µM (inactive) in the assay with K562, > 100 µM (inactive) in the assay with CAKI-1 and 33.7 µM (inactive) with RPMI-8226.

On to `O=C(O)CC(NC(=O)CP(=O)(O)O)C(=O)O` (stereo unspecified), for which the GI50 with HOP-92 was 424 µM (inactive); in the assay on KM12 it was 149 µM (inactive); with DLD-1, 66.4 µM (inactive); in the assay on 786-0 it was 40 µM (inactive); in the assay on M14 it was 383 µM (inactive); with NCI-H460, 25.4 µM (inactive). The GI50 with BT-549 is 3210 µM (inactive); in the assay with MDA-MB-231, 1360 µM (inactive); in the assay on PC-3 it was 1640 µM (inactive); in the assay on OVCAR-4, 2180 µM (inactive); with T47D, 1290 µM (inactive); in the assay on NCI-H522, 1650 µM (inactive). The GI50 is 44.9 µM (inactive) in the assay on SF-295; 149 µM (inactive) in the assay on OVCAR-8; 6080 µM (inactive) in the assay with SNB-75; 94.8 µM (inactive) with K562; 37.6 µM (inactive) in the assay on MDA-MB-435; 244 µM (inactive) with RPMI-8226.

Consider `O=c1c(Sc2c(O)c3ccccc3c3ccccc3c2=O)c(O)c2ccccc2c2ccccc12`, for which the GI50 was 29.3 µM (inactive) with HOP-92; 93.1 µM (inactive) in the assay on KM12; 51.3 µM (inactive) in the assay on DLD-1; 37.2 µM (inactive) in the assay with 786-0; 46.6 µM (inactive) in the assay with M14; 17.6 µM (inactive) with NCI-H460. Besides, the GI50 in the assay on OVCAR-4 is 41.8 µM (inactive); in the assay on NCI-H522 it was 13.4 µM (inactive); in the assay with UACC-257, 41.9 µM (inactive); in the assay with SF-295, 55.7 µM (inactive); with OVCAR-8, 45.3 µM (inactive); in the assay on SNB-75, > 100 µM (inactive). Further, the GI50 in the assay with K562 was 33.7 µM (inactive); with CAKI-1, 80.4 µM (inactive); in the assay with RPMI-8226 it was 19.8 µM (inactive).

For `CCCCc1c2c(nc3c1CCC/C3=C\c1ccccc1)C(=O)C(CN(C)C)CC2` (stereo unspecified), the GI50 is 16.6 µM (inactive) in the assay on HOP-92; 16.9 µM (inactive) in the assay with KM12; 17.1 µM (inactive) in the assay with DLD-1; 10 µM (inactive) in the assay on 786-0; 17.4 µM (inactive) in the assay on M14; 17.3 µM (inactive) in the assay on NCI-H460. The GI50 with BT-549 was 4.32 µM (inactive); in the assay on MDA-MB-231, 11.1 µM (inactive); in the assay with PC-3, 14.1 µM (inactive); in the assay on OVCAR-4, 14.3 µM (inactive); in the assay with T47D, 3.61 µM (inactive); in the assay on NCI-H522, 13.8 µM (inactive). Besides, the GI50 was 17 µM (inactive) in the assay on UACC-257; 16.7 µM (inactive) with SF-295; 20.8 µM (inactive) in the assay with OVCAR-8; 18.1 µM (inactive) in the assay with SNB-75; 6.89 µM (inactive) in the assay with K562; 17.2 µM (inactive) in the assay on MDA-MB-435. Besides, in the assay with RPMI-8226, the GI50 was 4.17 µM (inactive).

In the case of `CC(C)S(=O)(=O)n1c(N)nc2ccc(/C(=N/O)c3ccccc3)cc21` [ENVIROXIME], the GI50 was 3.61 µM (inactive) with HOP-92; 20.6 µM (inactive) in the assay on KM12; 26.2 µM (inactive) with DLD-1; 40.3 µM (inactive) with 786-0; 17.9 µM (inactive) in the assay with M14; 26.1 µM (inactive) in the assay on NCI-H460. Further, the GI50 was 23.5 µM (inactive) in the assay with OVCAR-4; 17.2 µM (inactive) with NCI-H522; 44.5 µM (inactive) in the assay with UACC-257; 18.2 µM (inactive) with SF-295; 30.3 µM (inactive) in the assay on OVCAR-8; 3.26 µM (inactive) in the assay on SNB-75. Moreover, the GI50 in the assay with K562 was 27.2 µM (inactive); in the assay with CAKI-1 it was 14.2 µM (inactive); with RPMI-8226, 10.3 µM (inactive).

Turning to `CCCCC[C@@H]1CCCC2NC(CCCCCO[Si](c3ccccc3)(c3ccccc3)C(C)(C)C)CCC21` (stereo partly specified), the GI50 was 10.1 µM (inactive) in the assay with HOP-92; 12.5 µM (inactive) with KM12; 13.2 µM (inactive) with DLD-1; 18.1 µM (inactive) in the assay with 786-0; 14.1 µM (inactive) with M14; 16.2 µM (inactive) in the assay on NCI-H460. In addition, the GI50 in the assay on OVCAR-4 was 8.67 µM (inactive); with NCI-H522 it was 15 µM (inactive); with UACC-257 it was 15.2 µM (inactive); in the assay with SF-295, 16.9 µM (inactive); in the assay with OVCAR-8, 17.1 µM (inactive); in the assay on SNB-75, 16 µM (inactive). The GI50 is 5.25 µM (inactive) in the assay on K562, 15.4 µM (inactive) in the assay on CAKI-1 and 5.31 µM (inactive) in the assay on RPMI-8226.

For `C/C(=N\NS(=O)(=O)c1ccc(C)cc1)C(CN1CCCCC1)C(c1ccccc1)c1c(O)c2ccccc2oc1=O` (stereo unspecified), the GI50 in the assay with HOP-92 is 95.7 µM (inactive); in the assay on KM12 it was > 100 µM (inactive); in the assay on DLD-1, > 100 µM (inactive); with 786-0, > 100 µM (inactive); in the assay with M14 it was > 100 µM (inactive); in the assay with NCI-H460, > 100 µM (inactive). The GI50 in the assay on OVCAR-4 is > 100 µM (inactive); in the assay on NCI-H522, 80.9 µM (inactive); with UACC-257, > 100 µM (inactive); in the assay on SF-295, > 100 µM (inactive); with OVCAR-8 it was > 100 µM (inactive); in the assay with SNB-75, > 100 µM (inactive). Besides, the GI50 with K562, in the assay with CAKI-1 and with RPMI-8226 was > 100 µM (inactive) each time.

In the case of `CCSc1nc(N2CCCC2)s[s+]1.[O-][Cl+3]([O-])([O-])[O-]`, the GI50 was 64.7 µM (inactive) in the assay on HOP-92; 39.4 µM (inactive) in the assay with KM12; 85.3 µM (inactive) with DLD-1; 58.1 µM (inactive) with 786-0; 25.4 µM (inactive) in the assay with M14; 0.225 µM (active) in the assay on NCI-H460. For the same molecule, the GI50 in the assay with BT-549 was 33 µM (inactive); in the assay with MDA-MB-231 it was 44.6 µM (inactive); in the assay on PC-3 it was 31.7 µM (inactive); in the assay on OVCAR-4, 50.8 µM (inactive); in the assay with NCI-H522 it was 0.346 µM (active); in the assay on UACC-257, 36.9 µM (inactive). The GI50 was 54.6 µM (inactive) in the assay on SF-295; 39.3 µM (inactive) in the assay with OVCAR-8; 24.3 µM (inactive) with SNB-75; 1 µM (active) in the assay on K562; 13.6 µM (inactive) in the assay with MDA-MB-435; 43 µM (inactive) in the assay on CAKI-1. In the assay with RPMI-8226, the GI50 is 0.318 µM (active).
